PubChem BioAssay (NCI)
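Tested at 5 concentrations; 48 h exposure; 96-well plates; endpoints linearly interpolated, else capped at highest concentration. At the TGI there is no net growth.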

Tests used:
Test in all cases: NCI tumour cell line growth inhibition, 48 h
[1] = test system: RXF-631 renal
[2] = test system: P388/ADR leukemia
[3] = test system: SN12K1 renal
[4] = test system: P388 leukemia

| Compound | TGI [1] | TGI [2] | TGI [3] | TGI [4] |
| --- | --- | --- | --- | --- |
| O=C(NN1C(=O)CSC1c1ccc(Cl)c(Cl)c1)c1ccncc1 (centres undefined) | > 100 µM | – | – | – |
| COc1cc(CCCOC2OC(COC3OCC(O)C(O)C3O)C(O)C(O)C2O)cc2cc(-c3ccc4c(c3)OCO4)oc12 (centres undefined) | – | > 175 µM | > 175 µM | > 175 µM |
